Experiment: gradient 5% acetonitrile 3 min, to 50% in 2 min, to 85% in 15 min, held 3 min, 100 µL/min
Settings: column: Zorbax Extend-C18 2.1 x 50 mm; eluents: water / acetonitrile, 0.1% formic acid
Summary of the method: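 The system's dead and dwell volumes were 40 μL and 900 μL, with a Zorbax Extend-C18 column (2.1 × 50 mm, 1.8 μm) run at 100 μL/min in water and acetonitrile containing 0.1% formic acid each. Pure standards were analyzed in mixtures of ~100 molecules by HPLC–quadrupole time-of-flight mass spectrometry in positive and negative ionization mode. Retention time was assigned from computationally picked, manually inspected adduct peaks.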

SMILES	RP-LC retention time [s]
O=C(NCc1ccccn1)C1CCN(c2nc3cccnc3s2)CC1	588
Cn1c(-c2cccc(C(=O)NCc3cccs3)c2)nc2cccnc21	688
COC(=O)c1ccsc1NC(=O)c1ccc2c(c1)OCCO2	979
Cc1ccc2cc(CCC(=O)NCCCN3CCCC3=O)c(=O)[nH]c2c1	623
Cc1noc(C)c1CCNC(=O)c1cc2c(-c3cccs3)nn(-c3ccccc3)c2n1C	1000
CC(C)(C)NC(=O)N1CCC(CNC(=O)C(=O)Nc2cccc(N3CCCC3=O)c2)CC1	683
Cn1cc(-c2cc3n(n2)CCC(=O)N3CC(=O)NCCCN2CCCC2=O)c2ccccc21	657
Cc1nc(N2CCCC2)ncc1-c1ccnc(N2CCN(c3ccccc3)CC2)n1	1100
Cc1nc(-c2ccc(-c3noc(C(C)NC(=O)c4ccco4)n3)cc2)cs1 (centres undefined)	863
Cc1cc(C)n(CCC(=O)N2CCCn3ccnc3C2C2CCCC2)n1 (centres undefined)	604
CCn1cnc2ccc(-c3noc(-c4ccc(OC)c(OC)c4)n3)cc21	698
Cc1nc2cc(-c3noc(-c4ccccc4C)n3)ccc2o1	640
CCOc1ccccc1NC(=O)N1CCc2cn(C)c3cccc(c23)C1	834
Cc1ccccc1S(=O)(=O)Cc1ccc(C(=O)N2CCN(c3ccccn3)CC2)o1	613
O=C(NCCn1ccc2ccccc21)C(=O)c1cn(CC(=O)N2CCOCC2)c2ccccc12	871
Cn1ncc(N2CCCC(C(=O)NC3CCCCCCC3)C2)cc1=O (centres undefined)	751
CC(C)Cc1csc(-c2csc(S(=O)(=O)NCc3ccc(Cl)cc3)c2)n1	1240
Cc1ccc(C)c(N2CCN(c3ccnc(SCC(=O)Nc4ccc(C)c(F)c4)n3)CC2)c1	955

SMILES	RP-LC retention time [s]
Cc1ccc(Cn2c(=O)n(CCNC(=O)c3cnccn3)c3ncccc32)cc1	737
CCc1ccc(CNC(=O)CCc2c(-c3ccc(Br)cc3)nc3ccccn23)cc1	753
COc1cccc(-n2cc(C(=O)OCC(=O)OC(C)(C)C)c3ccccc3c2=O)c1	1140
COC(=O)C1=CN(c2cc(C)ccc2OC)c2ccccc2S1(=O)=O	894
O=C1NC2(CCN(C(=O)c3ccc4c(c3)OCO4)CC2)Nc2c(Cl)cccc21	678
CCS(=O)(=O)c1ncc(Cl)c(C(=O)Nc2ccc(Oc3ccccc3)cc2)n1	929
Cc1cc(C)c(S(=O)(=O)N2CCC(C(=O)NCCc3csc(-c4ccccc4)n3)CC2)c(C)c1	1070
CC(C)CCN1CCC(N2CCN(S(=O)(=O)c3ccccc3F)CC2)C1=O (centres undefined)	662
O=S(=O)(c1ccc(-c2noc(COc3ccc(Cl)cc3)n2)cc1)N1CCCC1	1170
O=C(CSc1ccc(N2CCC(C(=O)NC3CC3)CC2)nn1)NCc1ccc(F)cc1	609
CCNC(=O)N1[C@H]2CC[C@@H]1c1cnc(-c3ccc(F)cc3)nc1C2	768
Clc1ccc(Cl)c(-c2ccc(CNCc3cccs3)o2)c1	772
O=C(NCCc1csc(-c2ccccc2)n1)C1CCN(S(=O)(=O)c2ccccc2F)CC1	893
O=C1NC(=O)c2c(NC(=O)C3(c4ccc(Cl)cc4)CCCC3)cccc21	1060
CCCN1C(=O)c2c(C(=O)NCc3ccc(C)cc3)ncn2CC1(C)C(=O)NC1CCCC1 (centres undefined)	848
CCn1c(=O)c(C)nc2cc(-c3noc(-c4cccc(C)c4)n3)ccc21	1190
CCSc1nnnn1-c1ccc(NC(=O)c2ccc3nnsc3c2)cc1	838
CCN(CC)C(=O)N1CC(n2cc(C(=O)N(C)CCOC)nn2)C1	624

Further lines, results first:

RP-LC retention time [s]	SMILES
908	Cc1ccc(CNC(=O)CN2CCc3ccccc3C2C(=O)N2CCCCC2)cc1C (centres undefined)
860	Cn1cccc1C(=O)NCc1cnoc1-c1ccc(F)cc1
1260	CC1CCN(c2ccc(-c3noc(CN4C(=O)COc5ccccc54)n3)cc2)CC1
598	Cc1ccc(NC(=O)N2CCc3nc(CNC(=O)C4CCC4)n(C)c3C2)cc1
744	CCOc1ccc(CNS(=O)(=O)c2ccc3c(c2)CCCC(=O)N3)cc1
596	Cc1ccc2c(Nc3ccc(F)cc3F)c(C(=O)N3CCCC3)cnc2n1
556	Cc1noc([C@@H]2CN(C(=O)c3cscn3)C[C@H]2C(N)=O)n1
1080	CC(C)CC(=O)Nc1ccc(S(=O)(=O)N2CCCC2c2nc(-c3ccc(F)cc3)no2)cc1 (centres undefined)
705	CN(C)C(CNC(=O)c1cc(-c2ccc3c(c2)OCCO3)on1)c1ccc(Cl)cc1 (centres undefined)
573	CN(CCNC(=O)c1cccc(N2CCNC(c3ccccc3)C2)n1)C1CCCCC1 (centres undefined)
808	NS(=O)(=O)c1ccc(NC(=O)CN2C(=O)S/C(=C\C=C\c3ccccc3)C2=O)cc1
949	Cc1cc(C)cc(NC(=O)N(C)CCc2noc(COc3ccccc3)n2)c1
649	O=C(CCC1CCN(c2cc(NC3CC3)ncn2)CC1)NCc1ccc(F)cc1
880	CCc1cccc(C)c1NC(=O)C1CCN(S(C)(=O)=O)c2ccccc2O1 (centres undefined)
762	Cc1cc(CNC(=O)C2CCCC2)c(C)o1
842	Cc1ccc(NC(=O)N2CCC(n3cnc4ccc(F)cc4c3=O)CC2)cc1F
644	CNC(=O)c1cccc(-c2noc(C)n2)c1
1050	CCn1ncc(NC(=O)COc2ccc(C(C)C)cc2)c(N2CCOCC2)c1=O
630	O=S(=O)(NCCc1c[nH]c2ncccc12)c1ccccc1Br
579	Cc1ccc(CNc2ccc3[nH]c(=O)[nH]c3c2)cc1
647	Cc1ccc(Cl)cc1NC(=O)N1CCC(N2CCN(Cc3ccccn3)C(=O)C2=O)CC1
792	O=C(CN1C(=O)CCc2cc(Br)ccc21)Nc1ccc2c(c1)OCO2
811	Cc1ccc(F)c(NC(=O)c2cn3c(n2)CSCC3)c1
634	CC1CCN(CCCNC(=O)c2nc(CCS(=O)(=O)c3ccc(F)cc3)no2)CC1
819	CCC1=NS(=O)(=O)c2cccnc2N1c1ccc(OC)cc1
582	Cc1cc(C(=O)NCCN2CCOCC2)c2cc(Br)ccc2n1
950	O=C(c1ccccc1OCc1nc(-c2ccccc2)no1)N1CCCCC1

RP-LC retention time [s]	SMILES
643	CN(CC1CCOCC1)C(=O)c1ccsc1
675	CN(CCNC(=O)C1=Cc2ccccc2OC1)C1CCCCC1
647	CC(C)N1CCN(Cc2nc(Cn3ccn4nc(-c5ccccc5)cc4c3=O)no2)CC1
849	Cc1cccc(NC(=O)C2CCCN(c3ncnc4onc(-c5ccc(F)cc5)c34)C2)n1 (centres undefined)
590	N#Cc1cccnc1N1CCN(c2ccccn2)CC1
715	Cc1cnc2c(N)cc(C)c(C)c2c1
906	CCOc1cccc2cc(C(=O)Nc3ccc4c(c3)C(=O)N(C)C4=O)oc12
1230	CCCN1C(=O)COc2cc(-c3noc(C(=O)N4CCN(c5cccc(Cl)c5)CC4)n3)ccc21
681	Cc1c(NC(=O)c2ccccc2-c2ccccc2C(=O)O)c(=O)n(-c2ccccc2)n1C
740	Cc1c(C(=O)N2CCSCC2)cnn1-c1ncccc1-c1nc(C2CC2)no1
616	CCN1CCC(N(Cc2ccc3c(c2)OCO3)C(=O)Nc2ccc(OC)c(OC)c2)CC1
1030	CCC1CCCCN1c1nc(-c2ccc([N+](=O)[O-])cc2)nc2ccccc12 (centres undefined)
817	CCc1noc(NC(C)=O)c1-c1ccc(OC)c(S(=O)(=O)N2CCCCCC2)c1
911	COC(=O)c1cc(S(=O)(=O)N2CCCC2C(=O)Nc2cc(F)ccc2F)cn1C (centres undefined)
899	O=C(c1cc2ccccc2[nH]1)N1CCCn2nc(-c3cccs3)cc2C1
804	O=C(O)c1cccc2c1C(=O)c1cccc3snc-2c13
930	CN1c2cc(C(=O)Nc3cccc(C(F)(F)F)c3)ccc2C(=O)N2CCCCC21 (centres undefined)
1040	O=C(Nc1ccccc1Cl)N1CCCC1c1nc(-c2ccc(F)cc2F)no1 (centres undefined)
720	CS(=O)(=O)N1CCC(OC2CCN(C(=O)Nc3ccc(F)cc3F)CC2)CC1
1170	Cc1ccc(N2CC(c3noc(-c4ccc(OC(F)(F)F)cc4)n3)CC2=O)cc1 (centres undefined)
854	CCOc1cccc(CNC(=O)c2nc(N3CCSCC3)c3cnn(C)c3n2)c1
918	O=C(O)Cc1sc(Nc2cccc3ccccc23)nc1-c1ccc(F)cc1
1240	Cc1ccc(C)c(NC(=O)c2c(C)sc3ncnc(N4CCCC(C)C4)c23)c1 (centres undefined)
652	NC(=O)C1CCCN(c2cccc3c2C(=O)c2ccccc2C3=O)C1 (centres undefined)
1180	c1ccc(-c2cc(NCc3ccccn3)n3ncc(-c4ccccc4)c3n2)cc1
939	O=C(C1=NN(Cc2ccccc2F)c2ccccc2S1(=O)=O)N1CCCCC1

From the METLIN SMRT retention time set (Domingo-Almenara et al. 2019)
